Data as given in ChEMBL document CHEMBL1137253, “Novel C-3 N-urea, amide, and carbamate dihydroindazolo[5,4-a]pyrrolo[3,4-c]carbazole analogs as potent TIE-2 and VEGF-R2 dual inhibitors” (Bioorg Med Chem Lett, 2006).

Test system: not listed separately
Assay: AUC (0-infinity) in rat at 1 mg/kg, iv
Assay type: ADME, organism-based
Set-up: time infinity, dose 1 mg/kg, route intravenous
Details: plasma

AUC(0-inf)	SMILES
1710 ng·h/mL	CCCn1c2ccc(NC(=O)OC(C)C)cc2c2c3c(c4c(c21)CCc1nn(C)cc1-4)C(=O)NC3

Test system: Rattus norvegicus
Assay: Toxicity assessed by gastrointestinal hemorrhage in rat at 10 mg/kg
Assay type: organism-based
Set-up: dose 10 mg/kg
Details: in vivo

SMILES	Activity
CCCn1c2ccc(NC(=O)OC(C)C)cc2c2c3c(c4c(c21)CCc1nn(C)cc1-4)C(=O)NC3	Toxic

Molecular target: Angiopoietin-1 receptor (Homo sapiens, UniProt Q02763)
Sequence (Q02763 whole entry): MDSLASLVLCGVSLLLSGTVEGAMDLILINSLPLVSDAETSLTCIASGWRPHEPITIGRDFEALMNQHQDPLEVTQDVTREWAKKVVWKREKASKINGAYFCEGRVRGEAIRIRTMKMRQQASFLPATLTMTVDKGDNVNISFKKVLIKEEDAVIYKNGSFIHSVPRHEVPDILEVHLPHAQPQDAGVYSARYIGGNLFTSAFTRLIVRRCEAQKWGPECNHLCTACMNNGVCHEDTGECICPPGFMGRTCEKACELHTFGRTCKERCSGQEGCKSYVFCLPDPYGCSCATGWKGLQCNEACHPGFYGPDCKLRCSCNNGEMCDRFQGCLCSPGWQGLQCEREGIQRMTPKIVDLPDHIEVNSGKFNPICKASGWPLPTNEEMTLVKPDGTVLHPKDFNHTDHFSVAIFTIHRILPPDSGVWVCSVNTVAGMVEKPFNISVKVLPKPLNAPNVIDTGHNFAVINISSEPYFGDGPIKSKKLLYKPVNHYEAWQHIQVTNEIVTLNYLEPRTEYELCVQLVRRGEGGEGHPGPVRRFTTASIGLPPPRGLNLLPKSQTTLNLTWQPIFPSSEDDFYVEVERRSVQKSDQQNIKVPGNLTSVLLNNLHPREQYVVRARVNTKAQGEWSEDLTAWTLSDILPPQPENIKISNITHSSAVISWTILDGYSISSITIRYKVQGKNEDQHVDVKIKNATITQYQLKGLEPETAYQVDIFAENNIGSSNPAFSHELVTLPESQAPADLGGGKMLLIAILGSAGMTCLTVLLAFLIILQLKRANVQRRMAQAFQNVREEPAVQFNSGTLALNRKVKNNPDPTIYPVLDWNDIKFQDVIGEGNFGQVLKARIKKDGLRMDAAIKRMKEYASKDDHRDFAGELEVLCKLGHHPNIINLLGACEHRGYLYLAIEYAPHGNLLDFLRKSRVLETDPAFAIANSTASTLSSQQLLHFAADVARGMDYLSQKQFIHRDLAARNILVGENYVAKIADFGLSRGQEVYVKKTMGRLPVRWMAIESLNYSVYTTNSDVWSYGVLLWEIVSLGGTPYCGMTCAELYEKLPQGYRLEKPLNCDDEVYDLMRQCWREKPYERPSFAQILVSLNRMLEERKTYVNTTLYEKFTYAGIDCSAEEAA
Details: not given

SMILES	IC50
CCCn1c2ccc(NC(=O)c3ccco3)cc2c2c3c(c4c(c21)CCc1nn(C)cc1-4)C(=O)NC3	29 nM
CCCn1c2ccc(NC(=O)Nc3ccccc3Cl)cc2c2c3c(c4c(c21)CCc1nn(C)cc1-4)C(=O)NC3	3 nM
CCCn1c2ccc(NC(=O)Nc3cc(C)ccc3F)cc2c2c3c(c4c(c21)CCc1nn(C)cc1-4)C(=O)NC3	1 nM
COc1cccc(NC(=O)Nc2ccc3c(c2)c2c4c(c5c(c2n3CC(C)C)CCc2nn(C)cc2-5)C(=O)NC4)c1	4 nM
CCCn1c2ccc(NC(=O)Nc3cc(C(F)(F)F)ccc3F)cc2c2c3c(c4c(c21)CCc1nn(C)cc1-4)C(=O)NC3	4 nM
CCCCn1c2ccc(N)cc2c2c3c(c4c(c21)CCc1nn(C)cc1-4)C(=O)NC3	230 nM
CCCn1c2ccc(NC(=O)Nc3ccc(C)cc3)cc2c2c3c(c4c(c21)CC(C=N)=CC4)C(=O)NC3	3 nM
CCCn1c2ccc(NC(=O)N(C)c3ccccc3)cc2c2c3c(c4c(c21)CCc1nn(C)cc1-4)C(=O)NC3	2 nM
CCCn1c2ccc(NC(=O)Nc3ccc(N(C)C)cc3)cc2c2c3c(c4c(c21)CCc1nn(C)cc1-4)C(=O)NC3	6 nM
CC(C)Cn1c2ccc(N)cc2c2c3c(c4c(c21)CCc1nn(C)cc1-4)C(=O)NC3	48 nM
CC(C)Cn1c2ccc(NC(=O)c3cccs3)cc2c2c3c(c4c(c21)CCc1nn(C)cc1-4)C(=O)NC3	10 nM
CCCn1c2ccc(NC(=O)Nc3cccs3)cc2c2c3c(c4c(c21)CCc1nn(C)cc1-4)C(=O)NC3	19 nM
CCCn1c2ccc(N)cc2c2c3c(c4c(c21)CCc1nn(C)cc1-4)C(=O)NC3	36 nM
CCCn1c2ccc(NC(=O)Nc3ccccc3)cc2c2c3c(c4c(c21)CCc1nn(C)cc1-4)C(=O)NC3	5 nM
COc1ccccc1NC(=O)Nc1ccc2c(c1)c1c3c(c4c(c1n2CC(C)C)CCc1nn(C)cc1-4)C(=O)NC3	8 nM
CCCn1c2ccc(NC(=O)Nc3ccccc3Br)cc2c2c3c(c4c(c21)CCc1nn(C)cc1-4)C(=O)NC3	4 nM
CCCn1c2ccc(NC(=O)Nc3cccc(F)c3)cc2c2c3c(c4c(c21)CCc1nn(C)cc1-4)C(=O)NC3	2 nM
CCCn1c2ccc(NC(=O)c3cccs3)cc2c2c3c(c4c(c21)CCc1nn(C)cc1-4)C(=O)NC3	12 nM
CCCn1c2ccc(NC(=O)Nc3ccccc3F)cc2c2c3c(c4c(c21)CCc1nn(C)cc1-4)C(=O)NC3	2 nM
CC(C)Cn1c2ccc(NC(=O)c3ccco3)cc2c2c3c(c4c(c21)CCc1nn(C)cc1-4)C(=O)NC3	20 nM
CCCOC(=O)Nc1ccc2c(c1)c1c3c(c4c(c1n2CCC)CCc1nn(C)cc1-4)C(=O)NC3	7 nM

Continued, values first:

IC50	SMILES
5 nM	CCCn1c2ccc(NC(=O)Oc3ccc(OC)cc3)cc2c2c3c(c4c(c21)CCc1nn(C)cc1-4)C(=O)NC3
3 nM	COc1ccc(NC(=O)Nc2ccc3c(c2)c2c4c(c5c(c2n3CC(C)C)CCc2nn(C)cc2-5)C(=O)NC4)cc1
18 nM	CCCn1c2ccc(NC(=O)OCC)cc2c2c3c(c4c(c21)CCc1nn(C)cc1-4)C(=O)NC3
2 nM	CCCn1c2ccc(NC(=O)Nc3ccc(OC)cc3)cc2c2c3c(c4c(c21)CCc1nn(C)cc1-4)C(=O)NC3
3 nM	CCCn1c2ccc(NC(=O)Nc3ccc(SC)cc3)cc2c2c3c(c4c(c21)CCc1nn(C)cc1-4)C(=O)NC3
7 nM	CCCCn1c2ccc(NC(=O)Nc3ccc(OC)cc3)cc2c2c3c(c4c(c21)CCc1nn(C)cc1-4)C(=O)NC3
11 nM	CCCn1c2ccc(NC(=O)OC(C)C)cc2c2c3c(c4c(c21)CCc1nn(C)cc1-4)C(=O)NC3
6 nM	CCCn1c2ccc(NC(=O)Nc3ccc(Cl)cc3)cc2c2c3c(c4c(c21)CCc1nn(C)cc1-4)C(=O)NC3
11 nM	CCCn1c2ccc(NC(=O)Oc3ccc(F)cc3)cc2c2c3c(c4c(c21)CCc1nn(C)cc1-4)C(=O)NC3
4 nM	CCn1c2ccc(NC(=O)Nc3ccc(OC)cc3)cc2c2c3c(c4c(c21)CCc1nn(C)cc1-4)C(=O)NC3
2 nM	CCCn1c2ccc(NC(=O)Nc3ccc(F)cc3)cc2c2c3c(c4c(c21)CCc1nn(C)cc1-4)C(=O)NC3

Test system: not listed separately
Assay: Half life in rat at 1 mg/kg, iv
Assay type: ADME, organism-based
Set-up: dose 1 mg/kg, route intravenous
Details: in vivo

half-life	SMILES
2.84 h	CCCn1c2ccc(NC(=O)OC(C)C)cc2c2c3c(c4c(c21)CCc1nn(C)cc1-4)C(=O)NC3

Test system: not listed separately
Assay: AUC (0-t) in rat at 5 mg/kg, po
Assay type: ADME, organism-based
Set-up: dose 5 mg/kg, route oral
Details: plasma

AUC(0-t)	SMILES
2420 ng·h/mL	CCCn1c2ccc(NC(=O)OC(C)C)cc2c2c3c(c4c(c21)CCc1nn(C)cc1-4)C(=O)NC3

Test system: not listed separately
Assay: Tmax in rat at 5 mg/kg, po
Assay type: ADME, organism-based
Set-up: dose 5 mg/kg, route oral
Details: in vivo

Tmax	SMILES
4 h	CCCn1c2ccc(NC(=O)OC(C)C)cc2c2c3c(c4c(c21)CCc1nn(C)cc1-4)C(=O)NC3

Test system: not listed separately
Assay: Volume of distribution in rat at 1 mg/kg, iv
Assay type: ADME, organism-based
Set-up: dose 1 mg/kg, route intravenous
Details: in vivo, read-out: Vdss

Vd	SMILES
2.34 L/kg	CCCn1c2ccc(NC(=O)OC(C)C)cc2c2c3c(c4c(c21)CCc1nn(C)cc1-4)C(=O)NC3

Test system: not listed separately
Assay: AUC (0-t) in rat at 1 mg/kg, iv
Assay type: ADME, organism-based
Set-up: dose 1 mg/kg, route intravenous
Details: plasma

AUC(0-t)	SMILES
1420 ng·h/mL	CCCn1c2ccc(NC(=O)OC(C)C)cc2c2c3c(c4c(c21)CCc1nn(C)cc1-4)C(=O)NC3

Species on record: Mus musculus
Assay: Antitumor activity against murine SVR cells in nude mice
Assay type: functional
Details: not given

SMILES	Activity
CCCn1c2ccc(NC(=O)OC(C)C)cc2c2c3c(c4c(c21)CCc1nn(C)cc1-4)C(=O)NC3	62%

Test system: not listed separately
Assay: AUC (0-infinity) in rat at 5 mg/kg, po
Assay type: ADME, organism-based
Set-up: time infinity, dose 5 mg/kg, route oral
Details: plasma

AUC(0-inf)	SMILES
3770 ng·h/mL	CCCn1c2ccc(NC(=O)OC(C)C)cc2c2c3c(c4c(c21)CCc1nn(C)cc1-4)C(=O)NC3

Test system: not listed separately
Assay: Clearance in rat at 1 mg/kg, iv
Assay type: ADME, organism-based
Set-up: dose 1 mg/kg, route intravenous
Details: in vivo

clearance	SMILES
10.5 mL/min/kg	CCCn1c2ccc(NC(=O)OC(C)C)cc2c2c3c(c4c(c21)CCc1nn(C)cc1-4)C(=O)NC3

Test system: not listed separately
Assay: Cmax in rat at 5 mg/kg, po
Assay type: ADME, organism-based
Set-up: dose 5 mg/kg, route oral
Details: in vivo

Cmax	SMILES
552 ng/mL	CCCn1c2ccc(NC(=O)OC(C)C)cc2c2c3c(c4c(c21)CCc1nn(C)cc1-4)C(=O)NC3
